Values of other authors, collected in publication PMC12844998, “Bridging the Knowledge Gap in Harmaline’s Pharmacological Properties: A Focus on Thermodynamics and Kinetics” (Pharmaceutics, 2025).

Conditions: source not stated; cited from earlier work

CCCCCC [Hex, n-Hexane]
logP: 3.5
